# Measured values published in patent US5942494A, “Stimulation of gene expression and synthesis of heat shock protein 72/73 (HSP 70)” (The Trustees of Columbia University in the City of New York, priority 1996, dated 1999).
# Numbered stars: 1 amine (or outer) side, 2 acyl side, 3 side chain; on linkers, the order of the positions; unused ones are H or OH. Bridge positions count the residues as written; N and C are the ends. Square brackets hold non-standard residues; d marks the D form. Peptide text beside a SMILES is read from it. I, II: the chains in the order shown. * marks the point of attachment. Actinocin(9to1) = Cc1c2oc3c(C)ccc(C(=O)[*:1])c3nc-2c(C(=O)[*:2])c(N)c1=O; Sta = CC(C)C[C@H](N)[C@@H](O)CC(=O)O; NMeV = CN[C@H](C(=O)O)C(C)C; Isovaleryl = CC(C)CC(=O)*; Cbz = O=C(OCc1ccccc1)*; Sar = CNCC(=O)O
# Tests used:
# Assay type in all cases: cell-based, human
# Hsp70 = Hsp70 levels by denaturing immunoprecipitation of [3H]-leucine radiolabeled HepG2 cells; conditions: for Induction of Hsp70 by protease inhibitors: HepG2, 4 hours pre-treatment, ALLN, ALLM 40 μg/ml, leupeptin, pepstatin A 50 μg/ml, E-64d 25 μg/ml, PMSF 1 mM, aprotinin 100 KIU/ml, Benz 1 mM, CIP 200 μM
# Experimental: The HepG2 cell culture conditions were maintained as previously described (Dixon, et al., 1991). The cells were seeded into collagen-pre-coated dishes or six-well tissue culture plates and grown in complete medium containing minimum essential medium (MEM) with 0.1 mM nonessential amino acids, 1.0 mM sodium pyruvate, penicillin/streptomycin, and 10% fetal bovine serum. Cells were fed fresh complete medium every 3 days and maintained in a 5% CO2 incubator. All experiments were performed by using exponentially growing cells at 90-95% confluency. For heat shock treatment, the dishes were sealed with Parafilm and immersed in a water bath at 42° C. for indicated durations of time. Cells were incubated with ALLN alone at indicated concentrations or combined with other chemicals at 37° C. Cells were also incubated with different protease inhibitors alone at indicated concentrations or combined with other chemicals at 37° C.
# (§1) HepG2 cells were preincubated for 4 hours in serum-free MEM and then radiolabeled with ^3 H-Leucine (150 μCi/ml) in a serum-free, leucine-free medium. Preincubation and labeling media each contained either 1.5% bovine serum albumin (BSA) alone, or BSA plus ALLN (40 μg/ml except as otherwise indicated), or BSA plus other protease inhibitors at concentrations indicated in the figure legends. At the indicated times, cells were removed from the 37° C. incubator and placed on ice, washed with cold phosphate-buffer saline (PBS) twice and lysed with lysis buffer containing 1% Triton X-100 (TX100), 1% deoxycholic acid (DOC) and 0.1% SDS in PBS containing proteinase inhibitors: 2 mM phenylmethylsulfonyl fluoride (PMSF); 2 μg/ml ALLN; 2 μg/ml leupeptin; and 2 μg/ml aprotinin. After a 30 min. incubation with lysis buffer at 4° C., the lysates were centrifuged at 14,000 g in a microcentrifuge for 5 min., and the supernatants were adjusted to 1% SDS concentration and boiled for 5 min. to denature the proteins. 1% TX100 was then added to dilute the lysates to a final concentration of 0.1% SDS. Cell lysates containing equal amounts of trichloroacetic acid (TCA)-insoluble radioactivity were used for immunoprecipitations by incubating with individual monoclonal antibody (1 μg/ml) for 2.5 hours at 4° C. Protein-A Sepharose 4B was added afterwards and the lysates incubated for another 1.5 hours at 4° C. to collect the immunocomplexes. After washing four times with 1×NET buffer (containing 0.5% TX100, 0.1% SDS), the immunocomplexes were mixed with sample buffer and boiled for 5 min. Following centrifugation, the supernatants were aliquoted for scintillation counting and for 3-15% gradient polyacrymide gel electrophoresis (SDS-PAGE) . The gels were later subjected to fluorography. All values are presented as the mean ± S.D. from three individual experiments except as otherwise indicated.
# Denaturing immunoprecipitation was chosen because Hsp70 is a major cytosolic chaperone protein and it is co-immunoprecipitated with a number of other proteins under non-denaturingconditions (Beckmann, et al., 1990; Zhou, et al., 1995).
# hsp70 (hsp72) mRNA = assay: Northern blot of hsp70 (hsp72) mRNA in HepG2 cells; conditions: with ALLN 40 μg/ml, 4 hours; actinomycin D 10 μg/ml; cycloheximide 50 μg/ml
# Experimental: HepG2 cells were treated with serum-free MEM containing either 1.5% BSA alone (Control, lane1), BSA plus 40 μg/ml of ALLN (ALLN, lane2), ALLN and 10 μg/ml of actinomycin D (A+AD, lane3), or ALLN and 50 μg/ml of cycloheximide (A+CXM, lane4). After 4 hours treatment at 37° C., cells were harvested. (B). HepG2 cells were treated with 40 μg/ml of ALLN in the serum-free MEM for up to 0 hour (lane1), 1 hour (lane2), 2 hours (lane3), and 3 hours (lane4) and then harvested without recovery. Or after treatment for 3 hours in the presence of ALLN as above, the ALLN containing medium were removed, cells were washed and fed fresh medium containing only BSA for recovery of up to 1 hour (lane5), 3 hours (lane6), 5 hours (lane7) or 7 hours (lane8). The total RNA was prepared, and equal amounts of the samples were loaded and run on a 1% formaldehyde-agarose gel, blotted onto a nylon membrane, and subsequently hybridized with specific synthetic oligonucleotide probes for hsp70 mRNA as described under Experimental Details. The position of 28S and 18S rRNA are shown for reference.
# Total RNA was prepared using the procedure of Chomczynski and Sacchi (Chomczynski, et al., 1987) and a commercially prepared reagent, TRISOLV™ (Biotecx Laboratories Inc., Tex.) . Equal amounts of tRNA samples (10 μg) were size-fractionated on a 1% agarose-formaldehyde gel according to the methods described (Maniatis, et al., 1982) and transferred to a piece of QIAGEN plus nylon membrane. To determine loading and transfer efficiency, RNA was stained with ethidium bromide before and after transfer. The membrane was baked for 30 min. at 80° C. in vacuo (a vacuum) followed by UV cross-linking. It was then incubated for 4 hours at 65° C. in a prehybridization mixture containing 10% dextran sulfate, 1% SDS, 1M sodium chloride, 50 mM Tris-HCl (pH 7.5) and 100 μg/ml denatured salmon sperm DNA. Hybridization was carried out for 18 hours at 65° C. in the same buffer with a ^32 P-labeled (1×10^6 cpm/ml) 40-mer oligonucleotide probe to the untranslated 5' region of a human hsp70 gene (Oncogene Science). […] The membrane was then washed four times with 2×SSC, 0.1% SDS at room temperature, one time at 65° C. for 30 min., and one time at room temperature again for 5 min., and finally rinsed with 2×SSC at room temperature. This membrane was air dried and exposed to X-ray film at -80° C. for 48 hours.
# Total RNA was isolated from HepG2 cells which had been incubated for 4 hours at 37° C. (FIG. 5A) with MEM containing BSA alone (Control, lane1), BSA plus 40 μg/ml of ALLN (ALLN, lane2), BSA plus ALLN and […] of actinomycin D (A+AD, lane3) or BSA plus ALLN and 50 μg/ml of cycloheximide (A+CXM, lane4). A radioprobe containing a unique sequence specific for the 5' untranslated region of hsp72 (inducible form) (Freeman et al., 1993) was used for Northern blot analysis.
# HepG2 cells = assay: Total incorporation of radiolabel (TCA cpm) as indicator of cell toxicity, HepG2; conditions: HepG2, 4 hours; MG132 10 or 30 μM; lactacystin 10 μM
# Experimental: as §1
Molecule,Induction of Hsp70 by protease inhibitors (Hsp70),also measured
"CC(=O)N[C@@H](CC(C)C)C(=O)N[C@@H](CC(C)C)C(=O)N[C@H](C=O)CCCNC(=N)N [Leupeptin, leupeptin]",ineffective,
"Cc1c2oc3c(C)ccc(C(=O)N[C@@H]4C(=O)N[C@H](C(C)C)C(=O)N5CCC[C@H]5C(=O)N(C)CC(=O)N(C)[C@@H](C(C)C)C(=O)O[C@@H]4C)c3nc-2c(C(=O)N[C@@H]2C(=O)N[C@H](C(C)C)C(=O)N3CCC[C@H]3C(=O)N(C)CC(=O)N(C)[C@@H](C(C)C)C(=O)O[C@@H]2C)c(N)c1=O [actinomycin D] (I: T[dV]P[Sar][NMeV] / II: T[dV]P[Sar][NMeV]; ester I:1-I:C, II:1-II:C; linker I:N-II:N via Actinocin(9to1))",,Effect of co-treatment on ALLN-induced hsp70 (hsp72) mRNA (hsp70 (hsp72) mRNA): abolished the effects of ALLN
"O=S(=O)(F)Cc1ccccc1 [PMSF, phenylmethylsulfonyl fluoride]",No induction,
aprotinin,No induction,
CC(C)CC(=O)N[C@H](C(=O)N[C@H](C(=O)N[C@@H](CC(C)C)[C@@H](O)CC(=O)N[C@@H](C)C(=O)N[C@@H](CC(C)C)[C@@H](O)CC(=O)O)C(C)C)C(C)C [pepstatin] (Isovaleryl-VV[Sta]A[Sta]-OH),No induction,
"CC(C)C[C@@H](C=O)NC(=O)[C@H](CC(C)C)NC(=O)[C@H](CC(C)C)NC(=O)OCc1ccccc1 [MG132, Cbz-leucyl-leucyl-leucinal] (Cbz-Leu-Leu-Leu-aldehyde)",,"Induction of Hsp70 levels by proteasome inhibitors (Hsp70; HepG2, 4 hours, MG132 10 μM or 30 μM, lactacystin 10 μM, 30 min radiolabeling): induced Hsp70 levels dramatically; Toxicity to the cells (TCA-precipitable radioactivities) (HepG2 cells): without obvious toxicity"
